The record followed here is PubChem BioAssay (NCI).

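Dose response: 5 concentrations. Exposure: 48 h. Format: 96-well plates. Endpoint: linear interpolation; highest concentration if not reached. The concentration for full growth arrest is given as TGI.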

Test systems include ACHN renal; EKVX NSCLC; HCT-15 colon; HS 578T breast; MDA-N; OVCAR-3 ovarian; OVCAR-5 ovarian; SK-MEL-5 melanoma; SW-620 colon; UO-31 renal.
Holding throughout (assay): NCI tumour cell line growth inhibition, 48 h

As to `CCCCC(=C=C(C)CO)C1CCCN1C(=O)OC(C)(C)C` (configuration not stated), the TGI came to 68.2 µM in the test on ACHN renal; 44 µM in the test with EKVX NSCLC; 39 µM in the test with HCT-15 colon; 30.4 µM in the test on HS 578T breast; 34.2 µM with MDA-N; 31.8 µM with OVCAR-3 ovarian. For the same compound, the TGI was 39.9 µM in the test on OVCAR-5 ovarian, 29.8 µM with SK-MEL-5 melanoma, 89.8 µM in the test with SW-620 colon and 37.7 µM with UO-31 renal.

Turning to `Cc1ccc2n(c1)cc(-c1ccc(/C=N/NC(=N)N/N=C/c3ccc(-c4cn5cc(C)ccc5[n+]4C)cc3)cc1)[n+]2C`, the TGI in the test with ACHN renal, in the test on EKVX NSCLC, in the test with HCT-15 colon, in the test on HS 578T breast, in the test on MDA-N and with OVCAR-5 ovarian was over 100 µM in each case. For the same compound, the TGI in the test with SK-MEL-5 melanoma was over 100 µM; with SW-620 colon, over 100 µM; with UO-31 renal it was 44.1 µM.

As for `CC(C)(C)c1cc(C(=O)C2Cc3ccccc3C(=O)O2)cc(C(C)(C)C)c1O` (configuration not stated), the TGI with ACHN renal was 40.3 µM; with EKVX NSCLC it was 25.9 µM; with HCT-15 colon it was 37 µM; with HS 578T breast, over 100 µM; with MDA-N, 23.9 µM; in the test with OVCAR-3 ovarian, 25.5 µM. Further, the TGI in the test with OVCAR-5 ovarian worked out at 31.8 µM; in the test with SK-MEL-5 melanoma it was 25.1 µM; with SW-620 colon it was 50.4 µM; in the test on UO-31 renal it was 23.2 µM.

Take `COC(=O)CCCC1(CCCC(=O)OC)CCCCCCCCC(CCCC(=O)OC)(CCCC(=O)OC)C(=O)C1=O`: the TGI in the test on ACHN renal is over 100 µM; with EKVX NSCLC, over 100 µM; with HCT-15 colon it was over 100 µM; in the test on HS 578T breast, over 100 µM; with MDA-N, over 100 µM; in the test with OVCAR-3 ovarian, 79.7 µM. In addition, the TGI with OVCAR-5 ovarian is over 100 µM; in the test on SK-MEL-5 melanoma, over 100 µM; in the test on SW-620 colon, over 100 µM; in the test on UO-31 renal it was 0.3 µM.

For the compound `CCCCCCCCCC(O)CC(=O)c1c(O)cccc1O` (configuration not stated), the TGI was determined as 53.7 µM in the test with ACHN renal; 45.5 µM with EKVX NSCLC; 39.4 µM with HCT-15 colon; 40.8 µM in the test on HS 578T breast; 51.6 µM with MDA-N; 41.9 µM with OVCAR-3 ovarian. Moreover, the TGI in the test with OVCAR-5 ovarian is 35.7 µM; with SK-MEL-5 melanoma it was 38 µM; in the test on SW-620 colon it was over 100 µM; with UO-31 renal, 38.6 µM.

On to `CSc1c2c(C)n[nH]c2nn1-c1ccccc1`, for which the TGI with EKVX NSCLC, in the test with HCT-15 colon, in the test on HS 578T breast, with MDA-N, in the test with OVCAR-3 ovarian and in the test on OVCAR-5 ovarian was over 100 µM each time. Also, the TGI in the test with SK-MEL-5 melanoma, with SW-620 colon and in the test with UO-31 renal was over 100 µM each time.

On to `COC1=CC(=O)c2c(cc(COP(N)(=O)N(CCCl)CCCl)n2C)C1=O` (configuration not stated), for which the TGI is 1.18 µM in the test with ACHN renal; 1.62 µM in the test with EKVX NSCLC; 3.54 µM in the test with HCT-15 colon; over 100 µM in the test on HS 578T breast; 4.09 µM in the test on MDA-N; 2.37 µM in the test with OVCAR-3 ovarian. Also, the TGI in the test with OVCAR-5 ovarian amounted to 4.21 µM; in the test on SK-MEL-5 melanoma it was 2.82 µM; with SW-620 colon, 4.21 µM; in the test with UO-31 renal it was 2.65 µM.

Consider `Cc1ccc(S(=O)(=O)/N=C2/N(C)CCCS2(=O)=O)cc1`, for which the TGI with ACHN renal, in the test on EKVX NSCLC, with HCT-15 colon, in the test with HS 578T breast, with MDA-N and in the test on OVCAR-3 ovarian was over 100 µM throughout. For the same compound, the TGI in the test on OVCAR-5 ovarian, in the test with SK-MEL-5 melanoma, in the test with SW-620 colon and in the test on UO-31 renal was over 100 µM each time.

On to `O=C(OCC1CCCN2CCCCC12)c1cccnc1` (configuration not stated), for which the TGI in the test on ACHN renal, with EKVX NSCLC, in the test on HCT-15 colon, in the test with HS 578T breast, in the test with MDA-N and with SK-MEL-5 melanoma was over 100 µM each time. The TGI with SW-620 colon and in the test on UO-31 renal was over 100 µM throughout.

`CC1(C)Oc2ccc3c(=O)cc(-c4cccs4)oc3c2C1C(=O)O` (configuration not stated): the TGI in the test on EKVX NSCLC, with HS 578T breast, in the test with MDA-N, with OVCAR-3 ovarian, in the test on OVCAR-5 ovarian and in the test on SK-MEL-5 melanoma was over 100 µM each time.

In the case of `C=CCOC(=O)c1c(C)n([O-])c2cc(Cl)c(Cl)cc2[n+]1=O`, the TGI was 50.9 µM in the test with ACHN renal; 41.1 µM in the test with EKVX NSCLC; 31.7 µM in the test on HCT-15 colon; 65.9 µM in the test on HS 578T breast; 45.6 µM in the test on MDA-N; 40.8 µM in the test on OVCAR-3 ovarian. Moreover, the TGI with OVCAR-5 ovarian was 75.7 µM; with SK-MEL-5 melanoma, 36.8 µM; in the test with UO-31 renal, 59.8 µM.

Take `Nc1nc(Nc2ccc(Cl)cc2)sc1C(=O)c1c[nH]c2ccccc12`: the TGI in the test with ACHN renal came to 36.2 µM; in the test with HCT-15 colon, 15.2 µM; with HS 578T breast, 71.3 µM; in the test with MDA-N it was 25.3 µM; in the test with OVCAR-3 ovarian, 36 µM; in the test with OVCAR-5 ovarian, 46.2 µM. The TGI in the test with SK-MEL-5 melanoma was 24.3 µM; in the test with SW-620 colon it was over 100 µM; in the test on UO-31 renal, 34.2 µM.

In the case of `O=C(/C=C/c1ccc2c(c1)OCO2)NCCc1ccco1`, the TGI in the test with ACHN renal, in the test with EKVX NSCLC, with HS 578T breast, in the test with MDA-N, in the test on OVCAR-3 ovarian and with OVCAR-5 ovarian was over 100 µM each time. For the same compound, the TGI with SK-MEL-5 melanoma, with SW-620 colon and with UO-31 renal was over 100 µM in each case.

In the case of `CC(=O)NNC(=S)/N=C\c1c(O)c2ccccc2oc1=O`, the TGI in the test on ACHN renal, in the test with HCT-15 colon, in the test on HS 578T breast, with MDA-N, in the test on OVCAR-3 ovarian and in the test on OVCAR-5 ovarian was over 100 µM each time. The TGI in the test with SK-MEL-5 melanoma, with SW-620 colon and in the test on UO-31 renal was over 100 µM each time.

Turning to `C[C@]12C(=O)C=CCC1=CC[C@@H]1[C@@H]2[C@H]2CC3(O)C(=O)O[C@@]4(C)[C@H]5C[C@@]6(C)[C@@H]7[C@@]2(O)[C@]1(OC[C@H]6C(=O)O5)O[C@]734` (some centres not stated), the TGI in the test with ACHN renal, with EKVX NSCLC, in the test on HCT-15 colon, with HS 578T breast, in the test with MDA-N and in the test with OVCAR-5 ovarian was over 100 µM in each case. For the same compound, the TGI in the test with SK-MEL-5 melanoma, with SW-620 colon and with UO-31 renal was over 100 µM each time.
